Key:
Experiment in all cases: biochemical
Set-up in all cases: KINOMEscan active-site-directed competition binding panel, 468 kinases, percent of DMSO control at 1 uM
Details in all cases: KINOMEscan binding, percent of DMSO control; read-out: Ctrl%
[1] = molecular target: T1, ERK8 (Homo sapiens, UniProt Q8TD08)
T1 construct: gene MAPK15

[2] = molecular target: T2, VEGFR2 (Homo sapiens, UniProt P35968)
T2 construct: gene KDR

[3] = molecular target: PIK3CA(H1047L) (Homo sapiens, UniProt P42336, H1047L)
Chain of PIK3CA(H1047L) (P42336 whole entry H1047L): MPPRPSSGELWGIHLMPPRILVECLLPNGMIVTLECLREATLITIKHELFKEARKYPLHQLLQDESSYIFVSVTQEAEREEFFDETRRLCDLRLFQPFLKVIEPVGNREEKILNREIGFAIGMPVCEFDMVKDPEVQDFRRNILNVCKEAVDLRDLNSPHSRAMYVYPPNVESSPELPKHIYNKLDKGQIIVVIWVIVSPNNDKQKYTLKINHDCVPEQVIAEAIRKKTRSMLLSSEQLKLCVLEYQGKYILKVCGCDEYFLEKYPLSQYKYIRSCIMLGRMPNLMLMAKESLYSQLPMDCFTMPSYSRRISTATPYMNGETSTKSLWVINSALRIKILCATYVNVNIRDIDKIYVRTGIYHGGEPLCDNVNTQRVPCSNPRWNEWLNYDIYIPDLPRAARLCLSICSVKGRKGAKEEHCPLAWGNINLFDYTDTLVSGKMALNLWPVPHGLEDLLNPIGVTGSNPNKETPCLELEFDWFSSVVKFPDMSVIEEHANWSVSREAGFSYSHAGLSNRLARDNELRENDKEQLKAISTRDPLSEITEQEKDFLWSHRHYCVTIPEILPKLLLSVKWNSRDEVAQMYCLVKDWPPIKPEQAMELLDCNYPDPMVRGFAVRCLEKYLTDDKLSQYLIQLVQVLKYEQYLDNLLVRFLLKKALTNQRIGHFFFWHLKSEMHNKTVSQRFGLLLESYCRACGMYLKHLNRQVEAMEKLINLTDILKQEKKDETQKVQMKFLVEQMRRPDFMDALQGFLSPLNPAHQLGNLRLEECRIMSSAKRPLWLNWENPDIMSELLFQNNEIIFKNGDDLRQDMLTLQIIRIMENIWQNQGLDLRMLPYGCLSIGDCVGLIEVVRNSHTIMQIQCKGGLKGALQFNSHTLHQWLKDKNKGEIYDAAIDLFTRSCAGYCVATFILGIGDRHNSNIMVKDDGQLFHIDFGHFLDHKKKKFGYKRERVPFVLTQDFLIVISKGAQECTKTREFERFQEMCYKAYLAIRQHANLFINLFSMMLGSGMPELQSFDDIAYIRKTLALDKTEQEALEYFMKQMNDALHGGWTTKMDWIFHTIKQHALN

[4] = molecular target: EPHA1 (Homo sapiens, UniProt P21709)
Chain of EPHA1 (P21709 whole entry): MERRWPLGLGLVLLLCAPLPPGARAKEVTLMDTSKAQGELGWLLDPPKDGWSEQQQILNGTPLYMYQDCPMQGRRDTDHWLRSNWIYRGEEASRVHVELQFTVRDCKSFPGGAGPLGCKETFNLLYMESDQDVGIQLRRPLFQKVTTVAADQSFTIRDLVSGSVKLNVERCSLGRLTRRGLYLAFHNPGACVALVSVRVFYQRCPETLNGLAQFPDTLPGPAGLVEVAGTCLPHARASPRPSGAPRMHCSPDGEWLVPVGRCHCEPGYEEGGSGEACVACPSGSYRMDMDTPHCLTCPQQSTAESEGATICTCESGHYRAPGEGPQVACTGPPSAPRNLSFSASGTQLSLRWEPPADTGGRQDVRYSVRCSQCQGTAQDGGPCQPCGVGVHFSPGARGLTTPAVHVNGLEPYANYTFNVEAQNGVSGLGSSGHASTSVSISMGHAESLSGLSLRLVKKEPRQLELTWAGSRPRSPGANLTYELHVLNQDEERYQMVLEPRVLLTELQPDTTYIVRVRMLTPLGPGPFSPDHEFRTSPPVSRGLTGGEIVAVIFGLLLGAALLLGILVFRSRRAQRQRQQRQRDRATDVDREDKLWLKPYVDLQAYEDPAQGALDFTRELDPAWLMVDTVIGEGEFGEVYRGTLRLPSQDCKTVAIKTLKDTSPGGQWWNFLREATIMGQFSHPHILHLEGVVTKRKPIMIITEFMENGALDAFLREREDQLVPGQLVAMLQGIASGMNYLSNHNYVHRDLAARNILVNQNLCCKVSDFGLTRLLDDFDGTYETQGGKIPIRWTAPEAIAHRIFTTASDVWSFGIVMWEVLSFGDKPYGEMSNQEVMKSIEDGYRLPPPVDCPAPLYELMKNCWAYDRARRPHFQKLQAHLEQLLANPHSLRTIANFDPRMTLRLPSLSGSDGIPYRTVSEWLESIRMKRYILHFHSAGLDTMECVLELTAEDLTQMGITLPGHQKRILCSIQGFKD

[5] = molecular target: T3, ABL1(E255K)-phosphorylated (Homo sapiens, UniProt P00519, E255K)
T3 construct: phosphorylated

[6] = molecular target: T4, MRCKA (Homo sapiens, UniProt Q5VT25)
T4 construct: gene CDC42BPA

[7] = molecular target: T5, JAK1(JH2domain-pseudokinase) (Homo sapiens, UniProt P23458)
T5 construct: JH2domain-pseudokinase

[8] = molecular target: CSNK2A1 (Homo sapiens, UniProt P68400)
[9] = molecular target: T6, ABL1(Y253F)-phosphorylated (Homo sapiens, UniProt P00519, Y253F)
T6 construct: phosphorylated

[10] = molecular target: RIPK2 (Homo sapiens, UniProt O43353)
[11] = molecular target: LIMK1 (Homo sapiens, UniProt P53667)
[12] = molecular target: TSSK1B (Homo sapiens, UniProt Q9BXA7)
[13] = molecular target: SBK1 (Homo sapiens, UniProt Q52WX2)
Chain of SBK1 (Q52WX2 whole entry): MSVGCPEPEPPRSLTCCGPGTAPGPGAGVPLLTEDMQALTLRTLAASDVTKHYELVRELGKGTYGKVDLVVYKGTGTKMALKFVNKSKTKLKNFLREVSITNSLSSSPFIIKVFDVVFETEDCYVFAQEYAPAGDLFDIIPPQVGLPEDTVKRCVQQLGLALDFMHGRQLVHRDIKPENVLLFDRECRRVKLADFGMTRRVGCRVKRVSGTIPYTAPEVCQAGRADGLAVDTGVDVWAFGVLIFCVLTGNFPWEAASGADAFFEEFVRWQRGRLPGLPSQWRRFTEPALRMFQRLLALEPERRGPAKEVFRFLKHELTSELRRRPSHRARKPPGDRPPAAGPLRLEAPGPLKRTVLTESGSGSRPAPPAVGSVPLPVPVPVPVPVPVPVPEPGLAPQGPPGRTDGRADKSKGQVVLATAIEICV

[14] = molecular target: MELK (Homo sapiens, UniProt Q14680)
[15] = molecular target: T7, OSR1 (Homo sapiens, UniProt O95747)
T7 construct: gene OXSR1

[16] = molecular target: ERBB4 (Homo sapiens, UniProt Q15303)
[17] = molecular target: INSRR (Homo sapiens, UniProt P14616)
[18] = molecular target: PIK3CA(M1043I) (Homo sapiens, UniProt P42336, M1043I)
Chain of PIK3CA(M1043I) (P42336 whole entry M1043I): as the sequence (P42336 whole entry H1047L) above, with M1043I, L1047H counted along it

[19] = molecular target: BLK (Homo sapiens, UniProt P51451)
Chain of BLK (P51451 whole entry): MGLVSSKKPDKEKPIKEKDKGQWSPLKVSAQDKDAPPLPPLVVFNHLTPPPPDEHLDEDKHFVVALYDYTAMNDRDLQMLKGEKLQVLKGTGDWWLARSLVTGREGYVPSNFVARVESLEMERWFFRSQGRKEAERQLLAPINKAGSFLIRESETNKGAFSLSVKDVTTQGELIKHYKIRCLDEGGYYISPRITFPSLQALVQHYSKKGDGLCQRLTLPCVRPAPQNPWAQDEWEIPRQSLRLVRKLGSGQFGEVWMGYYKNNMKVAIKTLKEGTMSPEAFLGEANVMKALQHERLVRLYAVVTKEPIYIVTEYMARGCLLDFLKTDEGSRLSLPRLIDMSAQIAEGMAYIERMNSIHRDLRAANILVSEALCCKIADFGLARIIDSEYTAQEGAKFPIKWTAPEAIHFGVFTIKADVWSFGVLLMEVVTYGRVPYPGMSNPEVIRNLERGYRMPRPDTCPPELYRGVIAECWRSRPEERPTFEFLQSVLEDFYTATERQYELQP

[20] = molecular target: T8, ABL1(T315I)-phosphorylated (Homo sapiens, UniProt P00519, T315I)
T8 construct: phosphorylated

[21] = molecular target: PRKCI (Homo sapiens, UniProt P41743)
[22] = molecular target: MAP4K2 (Homo sapiens, UniProt Q12851)
[23] = molecular target: T9, CTK (Homo sapiens, UniProt P42679)
T9 construct: gene MATK

[24] = molecular target: EPHA4 (Homo sapiens, UniProt P54764)

T2 sequence (P35968 whole entry): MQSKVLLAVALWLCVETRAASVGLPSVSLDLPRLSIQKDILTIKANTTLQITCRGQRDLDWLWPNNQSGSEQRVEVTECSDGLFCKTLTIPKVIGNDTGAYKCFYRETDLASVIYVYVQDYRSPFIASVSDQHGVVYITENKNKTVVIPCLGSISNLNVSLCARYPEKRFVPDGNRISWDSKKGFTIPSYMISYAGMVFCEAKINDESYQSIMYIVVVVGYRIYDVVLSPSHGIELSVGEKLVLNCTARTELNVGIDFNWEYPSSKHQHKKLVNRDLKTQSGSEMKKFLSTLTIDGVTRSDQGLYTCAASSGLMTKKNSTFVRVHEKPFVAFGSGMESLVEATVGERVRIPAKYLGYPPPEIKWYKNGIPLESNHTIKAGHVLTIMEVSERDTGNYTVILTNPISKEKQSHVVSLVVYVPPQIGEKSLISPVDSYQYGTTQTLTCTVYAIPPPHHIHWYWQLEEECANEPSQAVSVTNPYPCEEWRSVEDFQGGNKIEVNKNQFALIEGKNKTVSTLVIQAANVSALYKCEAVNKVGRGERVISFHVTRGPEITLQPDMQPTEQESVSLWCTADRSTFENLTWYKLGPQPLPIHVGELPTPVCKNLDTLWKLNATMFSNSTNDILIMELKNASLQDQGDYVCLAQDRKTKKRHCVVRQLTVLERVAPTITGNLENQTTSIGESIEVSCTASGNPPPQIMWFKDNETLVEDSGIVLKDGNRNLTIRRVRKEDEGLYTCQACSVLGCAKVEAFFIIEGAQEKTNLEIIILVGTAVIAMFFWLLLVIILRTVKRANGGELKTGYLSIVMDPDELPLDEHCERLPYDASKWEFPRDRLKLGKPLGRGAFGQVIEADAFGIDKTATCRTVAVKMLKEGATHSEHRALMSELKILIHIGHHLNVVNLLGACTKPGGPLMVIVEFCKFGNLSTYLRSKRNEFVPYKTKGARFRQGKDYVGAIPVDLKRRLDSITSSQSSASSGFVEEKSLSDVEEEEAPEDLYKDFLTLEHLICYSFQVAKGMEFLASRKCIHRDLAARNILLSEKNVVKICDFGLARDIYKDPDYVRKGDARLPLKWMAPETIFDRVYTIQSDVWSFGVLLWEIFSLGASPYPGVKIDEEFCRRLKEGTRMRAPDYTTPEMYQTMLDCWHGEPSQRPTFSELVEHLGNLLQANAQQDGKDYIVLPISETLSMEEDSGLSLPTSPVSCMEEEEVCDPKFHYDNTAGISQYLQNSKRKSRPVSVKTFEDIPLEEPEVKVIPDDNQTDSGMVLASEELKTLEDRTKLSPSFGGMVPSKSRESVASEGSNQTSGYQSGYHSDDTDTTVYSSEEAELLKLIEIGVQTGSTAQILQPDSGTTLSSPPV
T1 sequence (Q8TD08 whole entry): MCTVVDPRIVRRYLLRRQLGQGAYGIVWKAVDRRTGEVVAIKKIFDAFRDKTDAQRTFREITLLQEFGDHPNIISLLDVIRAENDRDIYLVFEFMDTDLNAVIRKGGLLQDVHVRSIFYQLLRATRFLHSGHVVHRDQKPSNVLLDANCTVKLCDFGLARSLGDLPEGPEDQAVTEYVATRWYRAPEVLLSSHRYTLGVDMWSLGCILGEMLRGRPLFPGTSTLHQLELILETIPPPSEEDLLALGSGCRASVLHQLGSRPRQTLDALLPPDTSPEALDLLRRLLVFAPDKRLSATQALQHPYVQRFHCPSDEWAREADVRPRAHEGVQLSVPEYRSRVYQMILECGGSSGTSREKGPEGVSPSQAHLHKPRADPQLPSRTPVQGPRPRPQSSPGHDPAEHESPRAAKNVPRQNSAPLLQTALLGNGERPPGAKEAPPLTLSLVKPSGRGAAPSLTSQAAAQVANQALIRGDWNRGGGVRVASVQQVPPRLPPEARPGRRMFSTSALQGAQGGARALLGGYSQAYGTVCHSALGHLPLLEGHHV

SMILES: Cc1ccc(NC(=O)c2cccc(C(F)(F)F)c2)cc1Nc1cc(-c2cccnc2)nc2[nH]ccc12 [HZX-02-059]
- remaining binding at 1 µM [1]: 92%
- remaining binding at 1 µM [2]: 100%
- remaining binding at 1 µM [3]: 56%
- remaining binding at 1 µM [4]: 78%
- remaining binding at 1 µM [5]: 77%
- remaining binding at 1 µM [6]: 88%
- remaining binding at 1 µM [7]: 64%
- remaining binding at 1 µM [8]: 81%
- remaining binding at 1 µM [9]: 49%
- remaining binding at 1 µM [10]: 100%
- remaining binding at 1 µM [11]: 72%
- remaining binding at 1 µM [12]: 100%
- remaining binding at 1 µM [13]: 88%
- remaining binding at 1 µM [14]: 96%
- remaining binding at 1 µM [15]: 97%
- remaining binding at 1 µM [16]: 86%
- remaining binding at 1 µM [17]: 100%
- remaining binding at 1 µM [18]: 92%
- remaining binding at 1 µM [19]: 91%
- remaining binding at 1 µM [20]: 98%
- remaining binding at 1 µM [21]: 71%
- remaining binding at 1 µM [22]: 96%
- remaining binding at 1 µM [23]: 56%
- remaining binding at 1 µM [24]: 8.3%
